Results from ChEMBL document CHEMBL3393043, “Computer-aided identification of novel anticancer compounds with a possible dual HER1/HER2 inhibition mechanism” (Bioorg Med Chem Lett, 2015).

Legend:
[1] = target: T1, Receptor tyrosine-protein kinase erbB-2 (Homo sapiens, UniProt P04626); test: Inhibition of human full length HER2 assessed as phosphorylation state at 10 uM by ELISA assay
[2] = target: T2, Epidermal growth factor receptor (Homo sapiens, UniProt P00533); test: Inhibition of human full length HER1 assessed as phosphorylation state at 10 uM by ELISA assay
[3] = Antiproliferative activity against human SKBR3 cells overexpressing HER2 by MTT assay; assay type: functional, cell-based; conditions: SK-BR-3
[4] = Antiproliferative activity against human BT474 cells overexpressing HER2 at 10 uM by MTT assay; assay type: functional; conditions: BT-474
[5] = Antiproliferative activity against human BT474 cells overexpressing HER2 by MTT assay; assay type: functional, cell-based; conditions: BT-474
[6] = Antiproliferative activity against human SKBR3 cells overexpressing HER2 at 10 uM by MTT assay; assay type: functional; conditions: SK-BR-3
[7] = target: T1, Receptor tyrosine-protein kinase erbB-2; test: Inhibition of human full length HER2 assessed as phosphorylation state by ELISA assay
[8] = target: T2, Epidermal growth factor receptor; test: Inhibition of human full length HER1 assessed as phosphorylation state by ELISA assay

T1 sequence (P04626 whole entry): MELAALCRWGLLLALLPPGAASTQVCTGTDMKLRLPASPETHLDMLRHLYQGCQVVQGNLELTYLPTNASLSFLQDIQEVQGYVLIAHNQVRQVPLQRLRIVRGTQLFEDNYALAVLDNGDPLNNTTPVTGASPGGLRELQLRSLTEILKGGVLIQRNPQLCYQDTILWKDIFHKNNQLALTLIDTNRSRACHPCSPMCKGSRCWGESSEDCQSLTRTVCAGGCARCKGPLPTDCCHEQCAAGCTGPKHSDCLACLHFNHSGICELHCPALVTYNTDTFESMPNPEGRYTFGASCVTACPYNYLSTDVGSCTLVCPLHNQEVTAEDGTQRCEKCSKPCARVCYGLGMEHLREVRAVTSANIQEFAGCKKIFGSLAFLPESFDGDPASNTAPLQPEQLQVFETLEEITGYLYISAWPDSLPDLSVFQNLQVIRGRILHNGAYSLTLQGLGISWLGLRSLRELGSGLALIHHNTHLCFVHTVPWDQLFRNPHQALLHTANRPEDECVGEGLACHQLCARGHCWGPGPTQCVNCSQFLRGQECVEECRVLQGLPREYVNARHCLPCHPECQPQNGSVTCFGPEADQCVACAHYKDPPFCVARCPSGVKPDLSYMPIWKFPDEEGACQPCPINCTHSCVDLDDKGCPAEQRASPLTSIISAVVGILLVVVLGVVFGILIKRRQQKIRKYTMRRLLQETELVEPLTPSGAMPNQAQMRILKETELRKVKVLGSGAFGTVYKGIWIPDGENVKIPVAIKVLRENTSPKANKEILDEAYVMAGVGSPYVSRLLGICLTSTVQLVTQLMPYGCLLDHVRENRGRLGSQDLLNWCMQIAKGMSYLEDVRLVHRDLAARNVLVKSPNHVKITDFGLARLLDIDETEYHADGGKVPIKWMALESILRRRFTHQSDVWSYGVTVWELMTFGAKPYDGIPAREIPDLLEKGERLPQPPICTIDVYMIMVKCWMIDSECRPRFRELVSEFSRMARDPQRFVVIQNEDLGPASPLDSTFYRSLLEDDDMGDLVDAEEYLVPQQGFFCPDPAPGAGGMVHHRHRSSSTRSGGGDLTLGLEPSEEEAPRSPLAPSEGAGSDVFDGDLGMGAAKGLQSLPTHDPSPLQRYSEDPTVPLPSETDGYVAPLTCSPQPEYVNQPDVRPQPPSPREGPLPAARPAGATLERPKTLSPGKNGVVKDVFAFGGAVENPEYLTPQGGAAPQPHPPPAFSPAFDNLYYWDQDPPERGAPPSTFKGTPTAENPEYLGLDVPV
T2 sequence (P00533 whole entry): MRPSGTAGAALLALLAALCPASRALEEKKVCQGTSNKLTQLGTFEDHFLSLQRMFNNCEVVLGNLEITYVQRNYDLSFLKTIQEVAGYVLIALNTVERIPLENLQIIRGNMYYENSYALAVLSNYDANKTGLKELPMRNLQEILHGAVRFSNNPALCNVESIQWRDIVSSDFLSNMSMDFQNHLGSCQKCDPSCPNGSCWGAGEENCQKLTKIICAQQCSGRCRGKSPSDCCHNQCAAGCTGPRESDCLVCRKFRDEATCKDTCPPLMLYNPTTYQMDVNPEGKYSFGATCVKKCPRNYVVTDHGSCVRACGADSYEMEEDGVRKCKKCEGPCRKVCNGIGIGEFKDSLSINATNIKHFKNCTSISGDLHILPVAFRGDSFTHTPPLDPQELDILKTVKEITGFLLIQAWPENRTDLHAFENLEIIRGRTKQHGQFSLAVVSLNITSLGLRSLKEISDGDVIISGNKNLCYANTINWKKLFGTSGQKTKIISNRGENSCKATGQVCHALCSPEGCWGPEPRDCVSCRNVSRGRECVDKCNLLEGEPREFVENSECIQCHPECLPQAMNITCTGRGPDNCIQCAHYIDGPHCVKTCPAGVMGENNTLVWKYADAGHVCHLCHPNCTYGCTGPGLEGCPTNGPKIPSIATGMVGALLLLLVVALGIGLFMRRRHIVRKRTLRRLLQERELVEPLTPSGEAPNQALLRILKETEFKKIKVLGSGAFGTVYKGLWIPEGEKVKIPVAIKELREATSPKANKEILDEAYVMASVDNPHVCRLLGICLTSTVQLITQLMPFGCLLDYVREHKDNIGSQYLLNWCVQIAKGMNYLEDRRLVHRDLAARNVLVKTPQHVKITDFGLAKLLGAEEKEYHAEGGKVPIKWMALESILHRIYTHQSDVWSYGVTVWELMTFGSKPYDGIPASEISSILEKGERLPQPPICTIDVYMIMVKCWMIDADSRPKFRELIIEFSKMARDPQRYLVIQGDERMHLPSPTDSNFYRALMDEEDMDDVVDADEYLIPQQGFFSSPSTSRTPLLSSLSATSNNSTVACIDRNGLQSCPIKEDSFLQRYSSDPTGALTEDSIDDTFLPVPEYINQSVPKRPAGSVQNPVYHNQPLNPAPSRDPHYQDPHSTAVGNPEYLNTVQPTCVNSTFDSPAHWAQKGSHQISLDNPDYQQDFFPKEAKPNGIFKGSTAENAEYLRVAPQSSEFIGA

| inhibition [1] | inhibition [2] | SMILES | IC50 [3] | inhibition at 10 µM [4] | IC50 [5] | also measured |
| --- | --- | --- | --- | --- | --- | --- |
| 67.1% | 80.5% | O=[N+]([O-])c1cc(-c2ccc(/C=N/c3nc4ccccn4c3-c3ccco3)o2)ccc1Cl | 3170 nM | 77% | 1100 nM |  |
| 75.1% | 76.1% | O=C(CSc1nnc2ccc(-c3ccccc3)nn12)NC(=O)Nc1ccccc1 | 1640 nM | 52.7% | 802 nM |  |
|  |  | N#Cc1cnn(-c2ccccc2)c1NC(=O)CSc1nnc(-c2ccco2)n1-c1ccc(F)cc1 |  | 9.56% |  |  |
|  |  | O=C(CSc1nc(-c2cccs2)cc(C(F)(F)F)n1)Nc1ccc2c(c1)OCO2 |  | 47.9% |  |  |
|  |  | COc1ccccc1OCC(=O)Nc1cccc(-c2nc3ccccc3c(=O)o2)c1 |  | 35% |  |  |
|  |  | Cc1nnc2sc(-c3ccc(NCc4ccc(F)cc4)cc3)nn12 |  | 51% |  |  |
| 67% | 83.9% | Cc1ccc(C(=O)COc2cccc(-c3cnc4ccccc4n3)c2)cc1 | 3110 nM | 56.2% | 314 nM |  |
| 72.1% | 81.8% | Nc1ncn(Cc2ccccc2)c2nc(SCCOc3ccccc3F)nc1-2 | 2260 nM | 61.4% | 426 nM |  |
|  |  | O=C(Cc1c[nH]c2ccccc12)NNC(=S)Nc1cccnc1 |  |  |  | inhibition at 10 µM [6]: 21.2% |
| 73.1% | 79.9% | Brc1cccc(CNc2ccc(-c3nc4ccccc4o3)cc2)c1 | 1240 nM | 51.8% | 343 nM |  |
|  |  | c1ccc(-n2nnnc2Oc2cccc(CNCc3ccc4c(c3)OCO4)c2)cc1 |  | 27.2% |  |  |
|  |  | Brc1cccnc1Nc1nnc(Cc2c[nH]c3ccccc23)o1 |  |  |  | inhibition at 10 µM [6]: 37.2% |
|  |  | O=C(COC(=O)c1cc(O)nc2ccccc12)c1ccc2ccccc2c1 |  | 17% |  |  |
|  |  | COc1nc(N/N=C/c2ccc(-c3ccc(Cl)c([N+](=O)[O-])c3)o2)nc(N2CCOCC2)n1 |  | 39.8% |  |  |
|  |  | O=C(Cc1c[nH]c2ccccc12)NNC(=S)Nc1ncccc1Br |  |  |  | IC50 [7]: 12.4 µM; IC50 [8]: 8.49 µM; inhibition at 10 µM [6]: 71.5% |
|  |  | Cc1ccn2c(C(=O)N/N=C/c3cn(-c4ccccc4)nc3-c3cccs3)c(C)nc2c1 |  | 48.2% |  |  |
|  |  | c1cncc(Nc2nnc(Cc3c[nH]c4ccccc34)o2)c1 |  |  |  | inhibition at 10 µM [6]: 33.4% |
| 85.8% | 83% | Cc1ccc2c(C)nc(Nc3nc(O)cc(CSc4nnnn4-c4ccccc4)n3)nc2c1 | 1030 nM | 72.7% | 755 nM | IC50 [7]: 6.03 µM; IC50 [8]: 3.92 µM |
|  |  | CN1C(=O)C(O)(CC(=O)c2cccc(-n3cccc3)c2)c2ccccc21 (configuration not stated) |  | 7.25% |  |  |
